Values of other authors in patent publication US20010034325A1, “Dietary modulators of gamma glutamyl transpeptidase” (priority 2000, published 2001).

Key:
[1] = biological target: GGTP (Homo sapiens, UniProt P19440); conditions: Misra et al. 1996
[2] = tested on: GGT; conditions: 12-o-tetradecanoyl phorbol-13-acetate induced activity

GGTP, sequence (P19440 whole entry): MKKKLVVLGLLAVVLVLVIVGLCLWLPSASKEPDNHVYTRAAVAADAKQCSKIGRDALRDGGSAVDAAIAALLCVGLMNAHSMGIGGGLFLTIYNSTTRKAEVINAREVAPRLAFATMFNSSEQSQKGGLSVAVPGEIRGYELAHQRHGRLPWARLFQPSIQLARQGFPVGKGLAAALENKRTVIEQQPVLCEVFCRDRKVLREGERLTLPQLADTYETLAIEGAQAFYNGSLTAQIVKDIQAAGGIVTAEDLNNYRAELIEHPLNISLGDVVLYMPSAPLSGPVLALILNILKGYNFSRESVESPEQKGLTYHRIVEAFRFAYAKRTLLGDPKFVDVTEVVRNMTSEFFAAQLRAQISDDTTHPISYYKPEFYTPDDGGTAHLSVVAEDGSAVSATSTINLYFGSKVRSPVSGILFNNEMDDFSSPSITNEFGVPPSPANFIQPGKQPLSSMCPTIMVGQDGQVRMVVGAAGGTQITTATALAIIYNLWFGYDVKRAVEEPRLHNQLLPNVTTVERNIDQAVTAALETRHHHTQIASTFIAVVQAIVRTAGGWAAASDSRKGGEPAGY

| Compound | effect on diabetes [1] | inhibition of GGT levels [2] |
| --- | --- | --- |
| N[C@H](C(=O)O)[C@@H]1CC(Cl)=NO1 [acivicin] | prevents overt diabetes | – |
| C=CCSCC=C [diallylsulfide (DAS), diallylsulfide] | – | inhibited significantly |
| OCc1c[nH]c2ccccc12 [indole-3-carbinol (I3C), indole-3-carbinol] | – | inhibited significantly |
